Data published in ChEMBL document CHEMBL5050852, “Kif18a inhibitors” (2021).

Molecular target: T1, Kinesin-like protein KIF18A (Homo sapiens, UniProt Q8NI77)
T1 sequence (Q8NI77 whole entry): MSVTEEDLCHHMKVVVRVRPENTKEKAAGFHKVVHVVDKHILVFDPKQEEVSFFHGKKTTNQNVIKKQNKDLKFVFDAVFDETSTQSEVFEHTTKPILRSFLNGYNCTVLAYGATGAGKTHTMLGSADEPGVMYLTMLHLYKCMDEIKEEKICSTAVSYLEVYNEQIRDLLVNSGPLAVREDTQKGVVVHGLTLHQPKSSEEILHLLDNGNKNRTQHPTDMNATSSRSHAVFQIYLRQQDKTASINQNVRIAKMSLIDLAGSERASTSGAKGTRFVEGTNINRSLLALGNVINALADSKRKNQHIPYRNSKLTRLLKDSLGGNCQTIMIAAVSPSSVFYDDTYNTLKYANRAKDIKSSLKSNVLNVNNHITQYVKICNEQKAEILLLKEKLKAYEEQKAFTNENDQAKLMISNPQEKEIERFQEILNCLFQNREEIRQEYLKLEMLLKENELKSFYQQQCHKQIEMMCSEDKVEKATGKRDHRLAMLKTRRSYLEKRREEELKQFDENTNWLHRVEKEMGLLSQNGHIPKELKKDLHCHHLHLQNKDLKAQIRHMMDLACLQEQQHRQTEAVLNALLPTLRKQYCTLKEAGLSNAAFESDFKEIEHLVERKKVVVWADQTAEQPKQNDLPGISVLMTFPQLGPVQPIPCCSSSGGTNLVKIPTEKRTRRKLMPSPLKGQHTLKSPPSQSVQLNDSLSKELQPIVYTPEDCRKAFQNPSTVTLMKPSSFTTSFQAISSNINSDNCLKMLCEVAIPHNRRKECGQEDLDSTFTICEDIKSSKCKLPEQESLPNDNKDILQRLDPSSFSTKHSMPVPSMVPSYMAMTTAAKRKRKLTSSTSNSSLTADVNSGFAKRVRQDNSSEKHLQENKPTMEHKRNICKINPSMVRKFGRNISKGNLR
Assay: Inhibition of recombinant His-tagged human KIF18A (1 to 467 residues) expressed in baculovirus expression system assessed as inhibition of microtubule-stimulated ATPase activity preincubated for 15 mins followed by ATP addition and further incubated for 15 mins and measured after 40 mins by ADP-Glo reagent based assay

Compound	IC50 [nM]
CC(C)(C)NS(=O)(=O)c1cccc(NC(=O)c2ccc(CS(=O)(=O)C(C)(C)C)cc2N2CCC3(CC2)CC3)c1	76
CCS(=O)(=O)Cc1ccc(C(=O)Nc2cccc(S(=O)(=O)NC(C)(C)C)c2)c(N2CCC3(CC2)CC3)c1	75

Next, values leading:

IC50 [nM]	Compound
51	CC(C)(C)NS(=O)(=O)c1cccc(NC(=O)c2ccc(NS(=O)(=O)CCO)cc2N2CCC3(CC2)CC3)c1
198	CC(C)(CO)Nc1cccc(NC(=O)c2ccc(S(=O)(=O)NC3(C)COC3)cc2N2CCC3(CC2)CC3)c1
131	C[C@@H]1CN(c2cc(F)cc(NC(=O)c3ccc(NS(=O)(=O)CCO)cc3N3CCC4(CC3)CC4)c2)CCO1
